Assay results published in patent US9340577B2, “HLA binding motifs and peptides and their uses” (priority 1992, dated 2016).
No end group written: not given here.

How the values were obtained:
Test in all cases: biochemical
Format in all cases: binding
HLA-A*0201 (HLA-A2.1) = HLA-A*0201 (HLA-A2.1) (Homo sapiens, UniProt P04439, D140Y/D185E/D98H/E176V/E277Q/G131W/G231S/I119V/I121R/I166T/I218V/L300P/L318F/N151K/N90K/P208A/P217A/Q86G/Q94H/R138H/R169H/T345S)
A*0206 = A*0206 (Homo sapiens, UniProt P04439, D140Y/D185E/D98H/E176V/E277Q/F33Y/G131W/G231S/I119V/I121R/I166T/I218V/L300P/L318F/N151K/N90K/P208A/P217A/Q86G/Q94H/R138H/R169H/T345S)
A*6802 = A*6802 (Homo sapiens, UniProt P04439, A269V/D140Y/D185E/E176V/E277Q/E87N/F33Y/G231S/I121R/I166T/I218V/L180W/L300P/L318F/N151K/P208A/P217A/Q86R/R138H/R169H/S129P/T345S/V36M)
A*0202 = A*0202 (Homo sapiens, UniProt P04439, D140Y/D185E/D98H/E176V/E277Q/G131W/G231S/I119L/I121R/I166T/I218V/L180W/L300P/L318F/N151K/N90K/P208A/P217A/Q67R/Q86G/Q94H/R138H/R169H/T345S)

## KILQQLLFI [Peptide 1525.21]
HLA-A*0201 (HLA-A2.1)
  IC50: 41 nM
A*0206
  IC50: 51 nM
A*6802
  IC50: > 20000 nM

## YVVWDSIYYI [Peptide 1578.52]
HLA-A*0201 (HLA-A2.1)
  IC50: 77 nM
A*0202
  IC50: 127 nM
A*0206
  IC50: 49 nM

## YACFVSNLAV [Peptide 9013.0248]
HLA-A*0201 (HLA-A2.1)
  IC50: 1390 nM
A*0202
  IC50: 754 nM
A*0206
  IC50: 71 nM
A*6802
  IC50: 95 nM

## VQWAYDNDV [Peptide 86.0190]
HLA-A*0201 (HLA-A2.1)
  IC50: 4430 nM
A*0202
  IC50: 89 nM
A*0206
  IC50: 428 nM
A*6802
  IC50: 3590 nM

## ELQNTTYLWWV [Peptide 9013.0325]
HLA-A*0201 (HLA-A2.1)
  IC50: 3000 nM
A*0206
  IC50: > 20000 nM
A*6802
  IC50: 157 nM

## IQNDTGFYT [Peptide 9013.0034]
HLA-A*0201 (HLA-A2.1)
  IC50: > 20000 nM
A*0202
  IC50: 3740 nM
A*0206
  IC50: 474 nM
A*6802
  IC50: > 20000 nM

## RTLQQLMFI [Peptide 1525.23]
A*0202
  IC50: 1820 nM
A*0206
  IC50: 55 nM
A*6802
  IC50: > 20000 nM

## TTAKLTIESV [Peptide 9013.0125]
HLA-A*0201 (HLA-A2.1)
  IC50: > 20000 nM
A*0202
  IC50: 4070 nM
A*6802
  IC50: 53 nM

## STQELFIPNV [Peptide 9013.0181]
HLA-A*0201 (HLA-A2.1)
  IC50: 5500 nM
A*0202
  IC50: 2100 nM
A*6802
  IC50: 854 nM

## YTNWKFIYL [Peptide 1578.47]
A*0206
  IC50: 84 nM
A*6802
  IC50: 146 nM

## ILQNDTGFYT [Peptide 9013.0147]
HLA-A*0201 (HLA-A2.1)
  IC50: 902 nM
A*0202
  IC50: 187 nM
A*0206
  IC50: 11100 nM
A*6802
  IC50: > 20000 nM

## ILNDTGFYT [Peptide 9013.0036]
HLA-A*0201 (HLA-A2.1)
  IC50: 213 nM
A*0202
  IC50: 14 nM
A*0206
  IC50: 3810 nM
A*6802
  IC50: > 20000 nM

## RILQQPLFI [Peptide 1545.03]
HLA-A*0201 (HLA-A2.1)
  IC50: 140 nM
A*0202
  IC50: 9910 nM
A*0206
  IC50: 872 nM
A*6802
  IC50: > 20000 nM

## YLLHVIKSDL [Peptide 9013.0152]
HLA-A*0201 (HLA-A2.1)
  IC50: 86 nM
A*0202
  IC50: 22 nM
A*0206
  IC50: 62 nM

## WLNYTPGPGI [Peptide 73.0129]
A*0206
  IC50: > 20000 nM

## FLGAFKKFL [Peptide 1578.22]
HLA-A*0201 (HLA-A2.1)
  IC50: 5840 nM
A*0202
  IC50: 10 nM
A*0206
  IC50: 11800 nM
A*6802
  IC50: > 20000 nM

## VAWDSVYYV [Peptide 1593.57]
HLA-A*0201 (HLA-A2.1)
  IC50: 4.4 nM
A*0202
  IC50: 35 nM
A*0206
  IC50: 3.3 nM
A*6802
  IC50: 48 nM

## KLMSNLLSI [Peptide 1578.21]
HLA-A*0201 (HLA-A2.1)
  IC50: 16 nM
A*0202
  IC50: 2.7 nM
A*0206
  IC50: 34 nM
A*6802
  IC50: > 20000 nM

## CC[C@H](C)[C@H](NC(=O)[C@@H](NC(=O)[C@@H](NC(=O)[C@@H](NC(=O)[C@@H](NC(=O)[C@@H](NC(=O)[C@@H](N)CCCNC(=N)N)[C@@H](C)O)[C@@H](C)O)C(C)C)[C@@H](C)O)[C@@H](C)O)C(=O)N[C@H](C(=O)N[C@H](C(=O)N[C@@H](Cc1ccc(O)cc1)C(=O)N[C@H](C(=O)O)C(C)C)C(C)C)[C@@H](C)O [Peptide 9013.0304]
A*0202
  IC50: 9.6 nM
A*0206
  IC50: 73 nM
A*6802
  IC50: 0.18 nM

## YLHNRLVVFT [Peptide 86.0075]
A*0202
  IC50: 120 nM
A*0206
  IC50: 15200 nM
A*6802
  IC50: 1600 nM

## TTQDVSLEV [Peptide 1593.54]
HLA-A*0201 (HLA-A2.1)
  IC50: 1340 nM
A*0202
  IC50: 2350 nM
A*0206
  IC50: 674 nM
A*6802
  IC50: 9 nM

## IQNIIQNDV [Peptide 9013.0032]
HLA-A*0201 (HLA-A2.1)
  IC50: 16200 nM
A*0202
  IC50: 1930 nM
A*6802
  IC50: > 20000 nM

## VVWDSIYYI [Peptide 1578.53]
HLA-A*0201 (HLA-A2.1)
  IC50: 13 nM
A*0202
  IC50: 39 nM
A*0206
  IC50: 11 nM
A*6802
  IC50: 52 nM

## KLTQLCVTL [Peptide 1537.02]
HLA-A*0201 (HLA-A2.1)
  IC50: 24 nM
A*0202
  IC50: 2.7 nM
A*0206
  IC50: 131 nM
A*6802
  IC50: > 20000 nM

## TQQATPGPV [Peptide 9013.0027]
HLA-A*0201 (HLA-A2.1)
  IC50: > 20000 nM
A*0206
  IC50: 5870 nM
A*6802
  IC50: > 20000 nM

## LTIESTPFNVV [Peptide 9013.0267]
HLA-A*0201 (HLA-A2.1)
  IC50: 1090 nM
A*0202
  IC50: 188 nM
A*0206
  IC50: 77 nM
A*6802
  IC50: 123 nM

## RLLLTASLLV [Peptide 9013.0117]
HLA-A*0201 (HLA-A2.1)
  IC50: 57 nM
A*0202
  IC50: 123 nM
A*6802
  IC50: 5940 nM

## GQFRVYPEV [Peptide 9013.0038]
A*0206
  IC50: 43 nM
A*6802
  IC50: > 20000 nM

## QQHTQELFV [Peptide 9013.0078]
HLA-A*0201 (HLA-A2.1)
  IC50: 2480 nM
A*0202
  IC50: 5290 nM
A*6802
  IC50: > 20000 nM

## VQWAYDNEL [Peptide 86.0196]
A*0202
  IC50: 190 nM
A*0206
  IC50: 1100 nM
A*6802
  IC50: > 20000 nM
